Like-named read-outs stand apart in the source and are kept apart here. Blank lines part the entries; values can stand above or below the compound they belong to.
Experiments:
[1] = Proton dissociation constants (pKa) of the proligands by pH-potentiometry, UV–vis and 1H NMR titrations; format: physicochemical; conditions: 30% (v/v) DMSO/H2O solvent mixture, I = 0.1 M (KCl), t = 25 °C
Description: (§1) The path length was 1 cm.
^1H NMR spectroscopic studies were carried out on a Bruker Avance III HD instrument. All spectra were recorded with the WATERGATE water suppression pulse scheme using sodium trimethylsilylpropanesulfonate as internal standard.

[2] = test system: MES-SA cells; test: Fluorescent protein-based cytotoxicity assay, MES-SA; format: cell-based, human; conditions: 120 h, ± SD, n = 3
Text: (§2) The cytotoxic activity of proligands H2L^3–H2L^6 and their copper(II) complexes 3–6 was investigated in the MES-SA (human uterine sarcoma) and in its MDR counterpart (MES-SA/Dx5) cell lines by a fluorescent protein-based assay.[73]
(§3) The human uterine sarcoma cell lines MES-SA and the doxorubicin selected MES-SA-Dx5 were obtained from ATCC (MES-SA: No. CRL-1976, MES-SA/Dx5: No. CRL-1977) and were used for the intracellular ROS generation studies. For cytotoxicity, we used the fluorescent cell lines MES-SA mCherry and MES-SA/Dx5 eGFP, which were created by lentiviral transductions of the respective genes.[73] The phenotype of the resistant cells was maintained by 500 nM doxorubicin treatment a week before use and was verified using cytotoxicity assays. Cells were cultivated at 37 °C, 5% CO2 in Dulbecco’s modified Eagle's Medium (DMEM, Sigma-Aldrich), supplemented with 10% fetal bovine serum, 5 mM glutamine, and 50 unit/mL penicillin and streptomycin (Thermo Fisher).
(§4) MES-SA mCherry and MES-SA/Dx5 eGFP cell suspensions were seeded after trypsinization at 2500 cells/20 μL density on 384-well plates, containing 20 μL of completed medium. The next day, serial dilution of the compounds was prepared and added in an additional 20 μL, with or without 0.4 μM Tariquidar. Liquid handling steps were performed by a Hamilton StarLet robot. […] The mean and standard deviation of the pIC50 values were calculated and converted to IC50 values.

[3] = molecular target: T1, mR2 RNR protein (Mus musculus, UniProt P11157); test: Tyrosyl radical reduction in mR2 RNR protein (EPR); format: biochemical; conditions: 20 μM mR2, 1:1 protein-to-drug
T1 construct: made in house
T1 sequence (P11157 1-390): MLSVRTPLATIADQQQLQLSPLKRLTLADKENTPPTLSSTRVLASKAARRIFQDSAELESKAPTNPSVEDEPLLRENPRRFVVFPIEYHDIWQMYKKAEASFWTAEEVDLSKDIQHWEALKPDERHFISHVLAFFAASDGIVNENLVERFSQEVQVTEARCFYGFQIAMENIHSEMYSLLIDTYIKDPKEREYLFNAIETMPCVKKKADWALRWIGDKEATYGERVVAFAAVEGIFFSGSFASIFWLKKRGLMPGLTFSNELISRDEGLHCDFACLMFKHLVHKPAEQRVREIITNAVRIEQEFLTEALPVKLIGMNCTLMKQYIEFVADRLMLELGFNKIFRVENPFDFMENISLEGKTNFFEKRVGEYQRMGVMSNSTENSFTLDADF
Description: Since α-N-heterocyclic TSCs are very potent R2 RNR inhibitors, the time-dependent Y^• reduction of the mR2 RNR protein was measured. The effect of equimolar concentrations of the proligands H2L^3–H2L^6 and their copper(II) complexes 3–6, in the absence and presence of an external reductant DTT, is shown in Figure 7.
Figure 7 Tyrosyl radical reduction kinetics of mR2 RNR (20 μM) in the absence (triangles) and in the presence (circles) of an external reductant (2 mM DTT) at the 1:1 protein-to-drug ratio, measured by EPR spectroscopy at 30 K, for (a) H2L^3 (black), H2L^4 (red), H2L^5 (blue), and H2L^6 (green) and for (b) 3 (black), 4 (red), 5 (blue), and 6 (green).
Samples containing 20 μM mR2 in 50 mM HEPES buffer, pH 7.5/100 mM NaCl, 20 μM compound in 1% (v/v) DMSO/H2O, in the absence or presence of 2 mM DTT, were incubated for indicated times and quickly frozen in cold isopentane. The same samples were used for repeated incubations at room temperature. The experiments were performed in duplicate.

[4] = test system: MES-SA/Dx5 cells; test: Fluorescent protein-based cytotoxicity assay, MES-SA/Dx5; format: cell-based, human; conditions: for IC50: 120 h, ± SD, n = 3; for SR, selectivity ratio IC50 (MES-SA)/IC50 (MES-SA/Dx5): in the absence of TQ
Text: as §2, §3, §4

[5] = set-up: method as in PMID 32336116; conditions: copper(II) complexes of the named TSCs, measured under similar conditions ref 67; cited from earlier work
[6] = test system: tubulin; test: Inhibition of [3H]colchicine binding to tubulin; conditions: for inhibition of colchicine binding % inhibition ± SD: tubulin 0.5 μM, colchicine 5 μM
[7] = Redox reaction of the copper(II) complexes with GSH (UV–vis, anoxic); format: physicochemical; conditions: pH 7.4 (50 mM HEPES); ccomplex = 25 μM; cGSH = 1.25 mM; pure water; 25 °C
Text: The direct reduction of the copper(II) complexes with the antioxidant GSH was investigated in anoxic aqueous solution at pH 7.4 by UV–vis spectrophotometry. At this pH, the complex [Cu(HL)]^+ is assumed to predominate according to the speciation studies (vide supra). The spectral changes were monitored in the wavelength range 250–550 nm by using a large excess of GSH (50 equiv). In this wavelength range, the spectral changes are due to the absorption of the metal complex and the ligand.
These changes imply that, after reduction in the presence of excess GSH, the generated copper(I) complex is not stable and liberates the free TSC ligand. […] The time-dependent absorbance changes are shown for all the studied systems in Figure 4b. The observed rate constants (kobs) were calculated (Table 2) as a semiquantitative description of the reaction kinetics. […] The obtained kobs values fall into the range for Triapine (0.10 min^–1), 2-pyridinecarboxaldehyde TSC (0.041 min^–1), and N-monomethylated N-methyl-Triapine (0.077 min^–1), measured under similar conditions.[67] To find out whether this slightly different kinetics for 6 and 3–5 is in accordance with their reduction potentials, cyclic voltammetry was performed.
The redox reaction of the copper(II) complexes with GSH and ascorbic acid was studied at 25.0 ± 0.1 °C on a Hewlett-Packard 8452A diode array spectrophotometer using a special, tightly closed tandem cuvette (Hellma Tandem Cell, 238-QS). The reactants were separated until the reaction was triggered. Both isolated pockets of the cuvette were completely deoxygenated by bubbling a stream of Ar for 10 min before mixing the reactants. Spectra were recorded before and then immediately after the mixing, and changes were followed until no further absorbance change was observed. One of the isolated pockets contained the reducing agent, and the other contained the complex. Their final concentrations were 1250 and 25 μM, respectively. The pH of all the solutions was adjusted to 7.40 by 50 mM HEPES buffer. The ionic strength of the solution was 0.1 M (KCl). The stock solutions of the reducing agents and the complexes were freshly prepared every day. During the calculations, the absorbance (A) – time (t) curves were fitted and analyzed at the λmax of the complex. (A0 – Afinal) × e^(−a×t) + Afinal was the fitting equation used, where the A0, Afinal, and a parameters were refined and accepted at the minimal value of the weighted sum of squared residuals (difference between the measured and calculated absorbance values) at the given wavelength. Then, observed rate constants (kobs) of the redox reaction were obtained from the data points of the simulated absorbance–time curves as the slope of the ln(A/A0) vs time plots.

[8] = test system: purified tubulin; test: Inhibition of polymerization of purified tubulin; format: biochemical; conditions: read-out: inhibition of tubulin IC50 ± SD
[9] = Conditional stability constants of the copper(II) complexes by EDTA displacement (UV–vis); format: physicochemical
Description: The stability constants of 3–6 were determined by EDTA competition experiments monitored by UV–vis spectrophotometry at pH 5.9, where the [Cu(HL)]^+ species is dominant. Since the displacement of the TSC ligand by EDTA is relatively slow, a 2 h reaction time was used to reach equilibrium. Upon increasing the concentration of EDTA, the absorbance of the characteristic S → Cu charge transfer band at 400–416 nm decreased (see, for example, Figure 3 for the copper(II)–H2L^4 (1:1) system).[68] The experiments were performed in both aqueous solution and the 30% (v/v) DMSO/H2O solvent mixture. The determined conditional (apparent) formation constants (log K′5.9) are rather similar (see Table 2) in both media. However, the values are lower in the DMSO/H2O solvent mixture than in aqueous solution, presumably due to coordination of DMSO to copper(II). An analogous observation was reported for the copper(II) complex of Triapine.[67] […] To compare the copper(II) binding ability of the studied TSCs H2L^3–H2L^6 at pH 5.9 (at which the conditional constants were determined), pCu (−log [Cu(II)]) values were also computed using the experimentally determined equilibrium constants (Table 2). The higher pCu value indicates a stronger metal ion binding ability of the ligand under given circumstances. The ligands form complexes with fairly similar stability, in agreement with the conditional stability constants. […] A similar behavior was reported for aqueous solutions of the N-terminally dimethylated derivative of the 2-pyridinecarboxaldehyde TSC (PTSC)[69] and for the corresponding morpholine-hybrid Morph-dm-FTSC.[52] In particular, the calculated pCu values were also very close, 13.17 for PTSC vs 13.08 for Morph-dm-FTSC calculated at pH 7.4.
as §1

[10] = Cyclic voltammetry of copper(II) complexes in DMSO/n-Bu4NPF6; format: physicochemical
Description: The redox properties of the copper(II) complexes 3–6 were investigated by electrochemical, EPR, and UV–vis spectroelectrochemical measurements. […] While the half-wave reduction potentials E1/2^red for complexes 3–5 were almost the same (−0.82 V vs Fc^+/Fc), the E1/2^red for 6 is by 0.07 V more positive (−0.75 V vs Fc^+/Fc), as summarized in Table 4. The corresponding proligands are not redox active in the cathodic part (not shown).
Cyclic voltammetric experiments with 0.5 mM solutions of copper(II) complexes 3–6 in 0.1 M nBu4NPF6 (puriss quality from Fluka; dried under reduced pressure at 70 °C for 24 h before use) as supporting electrolyte in DMSO (SeccoSolv max. 0.025% H2O, Merck) were performed under Ar using a three-electrode arrangement with Pt wire as the counter electrode and Ag wire as the pseudoreference electrode. Glassy carbon or Pt wire served as the working electrode. Ferrocene purchased from Sigma-Aldrich was used as the internal potential standard without further purification. All potentials in voltammetric studies were quoted vs ferricenium/ferrocene (Fc^+/Fc) as the redox couple. A Heka PG310USB (Lambrecht, Germany) potentiostat with a PotMaster 2.73 software package served for the potential control in voltammetric studies. In situ ultraviolet–visible-near-infrared (UV–vis–NIR) spectroelectrochemical measurements were performed on a spectrometer (Avantes, Model AvaSpec-2048 × 14-USB2 in the spectroelectrochemical cell kit ([…]3) with the Pt-microstructured honeycomb working electrode, purchased from Pine Research Instrumentation. The cell was positioned in the CUV-UV Cuvette Holder (Ocean Optics) connected to the diode array UV–vis-NIR spectrometer by optical fibers. UV–vis-NIR spectra were processed using the AvaSoft 7.7 software package. Halogen and deuterium lamps were used as light sources (Avantes, Model AvaLight-DH-S-BAL).

[11] = calculated at pH 7.4, aqueous solution ref 69, 52; cited from earlier work

pKa ([1]; UV–vis spectrophotometry, read-out: pKa1): 1.53 ± 0.01
pKa ([1]; pH–potentiometry, read-out: pKa1): < 2
pKa ([1]; pH–potentiometry, read-out: pKa2): 5.62 ± 0.06
pKa ([1]; pH–potentiometry, read-out: pKa3): > 10.5
Y• reduced in mR2 protein ([3]; after 15 min, in the presence of 2 mM DTT): ~70%
Y• reduced in mR2 protein ([3]; without DTT): ca. 20%
Compound: Cc1cc(NC(=S)N/N=C/c2ncccc2CN2CCOCC2)cc(C)c1O [H2L^3]
IC50 ([2]; Homo sapiens, MES-SA): 2.9 ± 0.4 µM
IC50 ([4]; Homo sapiens, MES-SA/Dx5): 13.1 ± 3.2 µM
SR, selectivity ratio IC50 (MES-SA)/IC50 (MES-SA/Dx5) [4]: 0.22

Compound: NC(=S)N/N=C/c1ccccn1 [2-pyridinecarboxaldehyde TSC]
kobs, reduction by GSH [5]: 0.041 min^–1

inhibition of colchicine binding % inhibition ± SD ([6]; 5 μM inhibitor): 22 ± 2%
inhibition of colchicine binding % inhibition ± SD ([6]; 25 μM inhibitor): 40 ± 3%
fold less potent than CA-4 in inhibiting [3H]colchicine binding ([6]; at the 5 μM concentration): 4.5 fold
IC50 [8]: 7 ± 0.3 µM
logK′5.9 (DMSO/H2O) ([9]; EDTA displacement, UV–vis, pH 5.9, 30% (v/v) DMSO/H2O, 25 °C): 10.33 ± 0.01
logK′5.9 (H2O) ([9]; EDTA displacement, UV–vis, pH 5.9, water, I = 0.1 M (KCl), 25 °C): 13.82 ± 0.04
pCu5.9 (=–log[Cu(II)]) ([9]; calcd. at pH 5.9, cL = cCu(II) = 1 μM): 8.20
Epa^1 ([10]; first anodic peak potential vs Fc+/Fc, 100 mV s^–1): +0.27 V
Epa^2 ([10]; second anodic peak potential vs Fc+/Fc, 100 mV s^–1): +0.79 V
E1/2^red ([10]; vs Fc+/Fc, scan rate 100 mV s^–1): –0.83 V
Compound: Cc1cc(NC(=NN=Cc2ncccc2CN2CCOCC2)[S][Cu][Cl])cc(C)c1O [complex 3, [Cu(HL^3)Cl]·H2O]
IC50 [2]: 15 ± 3 µM
kobs, redox reaction with GSH [7]: 0.059 ± 0.004 min^–1
IC50 [4]: 5.5 ± 0.6 µM
SR, selectivity ratio IC50 (MES-SA)/IC50 (MES-SA/Dx5) [4]: 2.76

Compound: CN(C)C(=S)NN=Cc1ccccn1 [PTSC]
pCu [11]: 13.17

Compound: COc1ccc(/C=C\c2cc(OC)c(OC)c(OC)c2)cc1O [C-A4, Combretastatin A-4, reference compound]
inhibition of colchicine binding % inhibition ± SD ([6]; 0.5 μM inhibitor): 85 ± 2%

Compound: COc1cccc2c1C(=O)c1c(O)c3c(c(O)c1C2=O)C[C@@](O)(C(=O)CO)C[C@@H]3O[C@H]1C[C@H](N)[C@H](O)[C@H](C)O1 [Doxorubicin, reference compound]
IC50 ([2]; Homo sapiens, MES-SA): 0.04 ± 0.01 µM
IC50 ([4]; Homo sapiens, MES-SA/Dx5): 1.9 ± 0.6 µM
SR, selectivity ratio IC50 (MES-SA)/IC50 (MES-SA/Dx5) [4]: 0.02

Source: PMC11181322, “Copper(II) Complexes with Isomeric Morpholine-Substituted 2-Formylpyridine Thiosemicarbazone Hybrids as Potential Anticancer Drugs Inhibiting Both Ribonucleotide Reductase and Tubulin Polymerization: The Morpholine Position Matters” (Journal of Medicinal Chemistry, 2024)
